Experimental data published in patent publication US12663426B2, “Method and composition for measurement of nitric oxide” (The University of Chicago, priority 2019, dated 2026).

Assays:
NOS3 = biological target: T1, NOS3 (Homo sapiens, UniProt P29474); assay: Steady state NOS3 activity imaging at plasma membrane and TGN with NOckout probes; type: cell-based; settings: T-47D cells
T1 construct: endogenous, basal NOS3 activity was estimated at each of these sub-cellular locations in T-47D cells; endogenous in cells; host or cells: T-47D cells
Procedure: Image acquisition. T-47D cells were maintained as mentioned above in the cell culture section. Cells were washed twice with Hank's balanced salt solution (HBSS) before incubating them with 500 nM NOckout^TGN for 30 min or 500 nM NOckout^PM for 10 min at 37° C. followed by 3 washes with HBSS solution to remove any unloaded sensors. For steady state imaging (FIG. 1), cells were treated with indicated agonists or antagonists for 1 hr in complete RPMI-1640 medium. Care was taken not to exceed the final concentration of DMSO>1% at any time of the experiment. Additionally, 1% DMSO was used as a negative control in untreated (Basal) cells. […] The cells are then washed and imaged (FIG. 1f).
For simultaneous imaging cells were treated with 500 nM NOckout^TGN for 30 min where last 10 min cells were co-incubated with 500 nM NOckout^PM. In order to achieve lowest signal (PTIO, FIG. 1e-f) or to achieve bleaching profile (PTIO, FIG. 3e) cells were pre-treated with 500 μM PTIO for 15 minutes. Images were captured on a Laser scanning confocal Leica SP8 microscope using 63×, 1.4UV NA objective. Desired excitation and emission wavelengths was achieved using white light laser along with notch filters and acousto-optical tunable filters. A488, DAR and A647 were imaged using the following settings—Alexa488 (λex=488 nm, λem=500 nm to 540 nm), DAR (λex=554 nm, λem=565 nm to 610 nm) and Alexa647 (λex=647 nm, λem=665 nm to 710 nm).
Image analysis was performed using Fiji (Schindelin, J. et al. Fiji: an open-source platform for biological-image analysis. Nat Methods 9, 676-682 (2012)). Auto-fluorescence was subtracted from images for ratiometric analysis. For representation, images were further processed by smooth and despeckle functions. In order to present G/B or G/R images, a mask for each image was constructed using Otsu thresholding method, and mask-multiplied images were used for division. The ROI plugin in Fiji was used to select either TGN (Alexa647 channel) or PM (Alexa488 channel) and these ROIs were recalled in DAR channel to measure intensity in all three channels.
Next, endogenous, basal NOS3 activity was estimated at each of these sub-cellular locations in T-47D cells without explicitly activating NOS3. To do this, the ratiometric NOckout^PM response, i.e. the G/B ratio, was first measured under conditions where cells were depleted of NO using the NO scavenger 2-phenyl-4,4,5,5-tetramethylimidazoline-1-oxyl 3-oxide (PTIO, 300 μM) (Goldstein, S., Russo, A. & Samuni, A. Reactions of PTIO and carboxy-PTIO with *NO, *NO2, and O2−*. J Biol. Chem. 278, 50949-50955 (2003)). […] These two extreme cases provide the minimum and maximum G/B signals afforded by NOckout^PM in the cell (FIG. 1e-f). The G/B values under any subsequent condition are normalized to the maximum G/B signal. […]

T-47D cells = assay: Golgi fragmentation (Giantin/GM130 immunofluorescence); type: cell-based
Procedure: (§1) Immunofluorescence staining. Cells were cultured on a glass bottom 3.5 cm imaging dish to reach 60% confluency. […] Treated cells were then washed three times with 1× PBS (pH 7.4) and fixed using, 4% paraformaldehyde at room temperature (RT, 15 min). Subsequently, cells were permeabilized using 0.25% triton X-100 followed by blocking using 3% BSA in 1× PBS. Cells were then incubated with indicated primary antibodies—mouse monoclonal anti-eNOS antibody (SantaCruz Cat #sc-376751), Polyclonal Anti-S-nitrosocysteine antibody (Abeam Cat #ab94930 or Abeam Cat #ab50185), Rabbit polyclonal Anti-Giantin antibody (Abeam Cat #ab24586) or Mouse monoclonal Anti-GM130 antibody (BD Biosciences Cat #610822) in blocking buffer (3% BSA in 1× 4 PBS) for 1 hour at RT. Cells were then washed for 5 min with 1× PBS (3×). Respective secondary antibodies conjugated with either Alexafluor 488 or Alexafluor 647 were added to the cells and incubated for 1 hr at RT. Cells were washed again to remove excess secondary antibody using 1× PBS for 5 min (3×). Hoechst 33342 (5 μM) was added 10 min prior to imaging to stain nuclear DNA. Cells were then imaged on a Leica SP8 laser scanning confocal microscope using excitation wavelengths 405 nm (Hoechst), 488 nm (AlexaFluor 488) and 647 nm (AlexaFluor 647). Images were processed using Fiji and maximum z-projection of 2-3 z-planes are used in representative images.
Golgi fragmentation was quantified with immunofluorescence images of Golgi structural protein Giantin. Merge images of Hoechst and Giantin allowed identification of cell numbers and enumeration of Golgi fragments per cell (≤3 Golgi fragments per cell was considered intact Golgi) (Lee, J. E. et al. Dependence of Golgi apparatus integrity on nitric oxide in vascular cells: implications in pulmonary arterial hypertension. Am. J. Physiol. Heart Circ. Physiol. 300, H1141-58 (2011)). […]
Small molecule inhibitors were then screened to identify the molecular pathway by which NOS3 inhibition induces Golgi fragmentation. This is based on the rationale that inhibiting a protein on this pathway should also block methylene blue-induced Golgi fragmentation. […] A range of small molecule inhibitors against kinases that have previously ascribed roles in Golgi fragmentation were then used. DNA-PK with NU7441 was ruled out (Farber-Katz, S. E. et al. DNA damage triggers Golgi dispersal via DNA-PK and GOLPH3. Cell 156, 413-427 (2014)). Compounds containing an indirubin core have broad specificity for Cyclin dependent kinases (CDKs) and Src kinases. […] CDK1, CDK2 and CDK5 were ruled out, using (R)-Roscovitine (Rosco).

[1] = tested on: S-nitrosylation at the Golgi; assay: Anti-S-nitrosocysteine immunostaining of T-47D cells; type: cell-based
Procedure: as §1
In order to address the significance of the […] population of NOS3 at the TGN, T-47D cells were immunostained using an antibody specific to S-nitrosocysteine.
Similar observations were made in MCF-7 cells upon NO depletion (FIG. 23). These studies reveal that the Golgi is a cellular hot-spot for 5-nitrosylation of proteins by NOS3, where it is essential for the maintenance of Golgi architecture in breast cancer cells. […] In addition to Golgi fragmentation, NO scavenging also hampered cell growth by inducing cell sensescence (FIG. 24).

NOS2 = biological target: T2, NOS2 (Mus musculus, UniProt P29477); assay: In cellulo specificity of NOckout to NO in LPS primed J774A.1 cells; type: cell-based; settings: LPS primed J774A.1 cells, 1400 W 10 μM
T2 construct: J774A.1 cells were treated with 1 μg/mL LPS for 12 h prior to the addition of NOckout; endogenous in cells; host or cells: J774A.1 macrophages primed with LPS
Procedure: Pharmacological inhibition: Pharmacological inhibition of different enzymes were performed by employing known inhibitors. […] Cells were bathed in inhibitors 1 h prior to the addition of NOckout probes during the specificity experiment performed in J774A.1 cells.
In cellulo specificity of NOckout to NO: In cellulo specificity of the NOckout probe towards NO^− was validated in J774A.1 cells. […] J774A.1 cells were treated with 1 μg/mL LPS for 12 h prior to the addition of NOckout (500 nM in HBSS) either in the presence or in absence of specific inhibitors. LPS addition was employed to induce the expression of NOS2NOX and MPO. […] After 90 minutes of incubation with the NOckout culture media was removed from the cells and three washes were performed using HBSS to remove extracellular NOckout before proceeding to the fluorescence imaging. […]
The in-cell specificity of NOckout can be evaluated by measuring the contribution of the reactive species produced by NOX, MPO and NOS2 to the observed fold change in G/R ratio upon LPS stimulation. […] As NOS2 activity is not pan-endosomal, specificity is given by quantifying the percentage of endosomes that show G/R values higher than the mean G/R value in endosomes of unstimulated, NOS2 inhibited cells, as the latter corresponds to basal endosomal NO levels (FIG. 6c).

TLR-9 and TLR-21 = assay: Phagosomal NO in zebrafish microglia with NOckout^zCpG; type: in vivo
Description: Zebrafish brain was imaged in the optic tectum using an upright Zeiss LSM-710 confocal microscope equipped with water immersion objectives (20×, or 40×). Zebrafish larvae (3-4 dpf were mounted dorsally in a 1.5% low-melting point agar-bed on a confocal imaging dish (3.5 cm glass bottom). E3-containing 0.003% MS-222 was present in the imaging dish though out the imaging section. For NOckout injected samples, images were acquired simultaneously in GFP, DAR, and A647N channels using excitation wavelengths 488 nm, […] from Argon-ion (488 nm), Helium-Neon (543 nm & 632 nm) laser sources respectively. pHrodo was imaged using the same settings as that of DAR.
Image analysis: A MATLAB based program called Findosome was used to calculate the (G/R) values of individual endosomes from the acquired images. […] For each ROI, the program calculates fluorescence intensities both in the normalizing channel (A647, R) as well as in the DAR (G) channel. […] From the results, (G/R) value for individual endosomes can be calculated. Phagosomal (G/R) values from the zebrafish microglia are calculated using Fiji software. […] Fluorescence intensities in A647 and DAR channels were calculated. […] For (G/R) ratio quantification experiments, only those vesicles that are present in both green (G) and red (R) channels were considered. […]

Structure (SMILES): CC(=N)NCc1cccc(CN)c1 [1400 W]
- G/B and G/R values of NOckout probes (NOS3 activity) (NOS3): no effect
- Golgi fragmentation by treatment alone (T-47D cells): none of these treatments fragmented the Golgi
- S-nitrosylation at the Golgi [1]: no change
- reduction of NOckout signal (NOS2): ~50%
- reduction of phagosomal G/R versus NOckout^zCpG (TLR-9 and TLR-21): ~50%
